Here are results for 28 compounds from ChEMBL document CHEMBL1138593, “Structural modification of 3-arylisoquinolines to isoindolo[2,1-b]isoquinolinones for the development of novel topoisomerase 1 inhibitors with molecular docking study” (2009).

In assay [1] the test system is HCT-15. Put plainly: Cytotoxicity against human HCT15 cells by sulforhodamine B assay. Type of assay: functional.
The test system of assay [2] is A549. The experiment in a line: Cytotoxicity against human A549 cells by sulforhodamine B assay. Type of assay: functional. Background: The SRB assay estimates cell density from bound dye.
For assay [3], the system named is SK-OV-3. The experiment in a line: Cytotoxicity against human SKOV3 cells by sulforhodamine B assay. Type of assay: functional.
The species named for assay [4] is Bos taurus. The experiment in a line: Inhibition of calf thymus DNA topoisomerase 1 assessed as relaxation of supercoiled Escherichia coli pBR322 DNA at 100 ug/mL after 30 mins by agarose gel electrophoresis.

Calls of active or inactive are those of the source. No cut-off for these calls is given here.

For the compound `COc1ccc(-c2cc3ccccc3c(=O)[nH]2)c(CO)c1`, the Activity in assay [1] was determined as 0.21 µg/mL; in assay [2] it was 3.65 µg/mL; in assay [3], 0.37 µg/mL.
As for `COc1ccc(COCc2ccccc2-c2cc3cc(C)ccc3c(=O)[nH]2)cc1`, the Activity worked out at 13.27 µg/mL in assay [1], 7.44 µg/mL in assay [2] and 2.37 µg/mL in assay [3].
Turning to `Cc1ccc2c(=O)n3c(cc2c1)-c1ccccc1C3`, the “topoisomerase 1 inhibition (active/not active)” value in assay [4] is “Active”. Also, the Activity in assay [1] came to 46.35 µg/mL; in assay [2], 15.94 µg/mL; in assay [3], 44.12 µg/mL.
On to `COc1cc(CO)c(-c2cc3ccc(C)cc3c(=O)[nH]2)cc1OC`, for which the Activity in assay [1] was 22.45 µg/mL; in assay [2] it was 15.15 µg/mL; in assay [3] it was 0.67 µg/mL.
Turning to `COCOCc1cc(OC)c(OC)cc1-c1cc2ccc(C)cc2c(=O)[nH]1`, the Activity in assay [1] was found to be 31.13 µg/mL; in assay [2], 25.02 µg/mL; in assay [3] it was 28.22 µg/mL.
Turning to `COc1ccc(-c2cc3ccc(C)cc3c(=O)[nH]2)c(CO)c1`, the results for the Activity in assay [1], in assay [2] and in assay [3] were 7.39 µg/mL, 10.11 µg/mL and 9.69 µg/mL, respectively.
Consider `COc1cc2c(cc1OC)-c1cc3ccc(C)cc3c(=O)n1C2`, for which the “topoisomerase 1 inhibition (active/not active)” value in assay [4] is “inactive”. Besides, the results for the Activity in assay [1], in assay [2] and in assay [3] were 6.56 µg/mL, 24.13 µg/mL and 7.23 µg/mL, respectively.
Regarding `COc1cc2c(cc1OC)-c1cc3ccccc3c(=O)n1C2`, in assay [4], the “topoisomerase 1 inhibition (active/not active)” value was “inactive”. In addition, the Activity in assay [1] is 9.12 µg/mL; in assay [2], 36.75 µg/mL; in assay [3] it was 12.69 µg/mL.
For the compound `COCOCc1cc(OC)c(OC)cc1-c1cc2cc(C)ccc2c(=O)[nH]1`, the Activity in assay [1] was 34.55 µg/mL; in assay [2], 43.65 µg/mL; in assay [3] it was 34.54 µg/mL.
In the case of `COCOCc1cc(OC)ccc1-c1cc2ccccc2c(=O)[nH]1`, the Activity in assay [1] came to 21.84 µg/mL; in assay [2], 32.98 µg/mL; in assay [3] it was 17.06 µg/mL.
As for `COc1ccc(COCc2ccccc2-c2cc3ccc(C)cc3c(=O)[nH]2)cc1`, the Activity in assay [1] was found to be 4.15 µg/mL; in assay [2], 3.33 µg/mL; in assay [3] it was 4.76 µg/mL.
With `COc1cc(CO)c(-c2cc3cc(C)ccc3c(=O)[nH]2)cc1OC`, the Activity is 7.17 µg/mL in assay [1], 22.1 µg/mL in assay [2] and 7.8 µg/mL in assay [3].
For `Cc1ccc2cc(-c3ccccc3CO)[nH]c(=O)c2c1`, in that order: 23.11 µg/mL, 12.78 µg/mL and 0.22 µg/mL.
Regarding `O=c1[nH]c(-c2ccccc2CO)cc2ccccc12`, the Activity in assay [1] was 3.88 µg/mL; in assay [2], 6.89 µg/mL; in assay [3], 21.98 µg/mL.
As to `COc1ccc2c(c1)Cn1c-2cc2ccc(C)cc2c1=O`, in assay [4], the “topoisomerase 1 inhibition (active/not active)” value was “inactive”. For the same compound, the Activity in assay [1] amounted to 34.33 µg/mL; in assay [2], 45.12 µg/mL; in assay [3] it was 15.34 µg/mL.
`COCOCc1cc(OC)ccc1-c1cc2cc(C)ccc2c(=O)[nH]1`: the Activity in assay [1] turned out to be 29.26 µg/mL; in assay [2] it was 80.22 µg/mL; in assay [3], 31.26 µg/mL.
Take `COc1cc2c(cc1OC)-c1cc3cc(C)ccc3c(=O)n1C2`: the “topoisomerase 1 inhibition (active/not active)” value in assay [4] is “inactive”. For the same compound, the Activity in assay [1] amounted to 34.98 µg/mL; in assay [2] it was 49.09 µg/mL; in assay [3], 36.15 µg/mL.
As to `COCOCc1cc(OC)ccc1-c1cc2ccc(C)cc2c(=O)[nH]1`, the results for the Activity in assay [1], in assay [2] and in assay [3] were 40.05 µg/mL, 66.52 µg/mL and 23.08 µg/mL, respectively.
For `CC[C@@]1(O)C(=O)OCc2c1cc1n(c2=O)Cc2cc3ccccc3nc2-1` [CAMPTOTHECIN], the “topoisomerase 1 inhibition (active/not active)” value in assay [4] is “Active”. In addition, the figures for the Activity in assay [1], in assay [2] and in assay [3] were 0.089 µg/mL, 0.072 µg/mL and 0.035 µg/mL, respectively.
`COc1cc(CO)c(-c2cc3ccccc3c(=O)[nH]2)cc1OC`: the Activity in assay [1] was determined as 19.68 µg/mL; in assay [2] it was 7.32 µg/mL; in assay [3] it was 12.58 µg/mL.
Consider `Cc1ccc2cc3n(c(=O)c2c1)Cc1ccccc1-3`, for which the “topoisomerase 1 inhibition (active/not active)” value in assay [4] is “Active”. The figures for the Activity in assay [1], in assay [2] and in assay [3] were 35.27 µg/mL, 41.44 µg/mL and 48.92 µg/mL, respectively.
Consider `COc1ccc(-c2cc3cc(C)ccc3c(=O)[nH]2)c(CO)c1`, for which the Activity in assay [1] turned out to be 4.28 µg/mL; in assay [2] it was 19.43 µg/mL; in assay [3] it was 14.59 µg/mL.
For `O=c1c2ccccc2cc2n1Cc1ccccc1-2`, the “topoisomerase 1 inhibition (active/not active)” value in assay [4] was “Active”. Further, the Activity in assay [1] is 43.93 µg/mL; in assay [2], 3.7 µg/mL; in assay [3], 14.84 µg/mL.
In the case of `COc1ccc(COCc2ccccc2-c2cc3ccccc3c(=O)[nH]2)cc1`, the figures for the Activity in assay [1], in assay [2] and in assay [3] were 17.39 µg/mL, 26.56 µg/mL and 24.66 µg/mL, respectively.
For `Cc1ccc2c(=O)[nH]c(-c3ccccc3CO)cc2c1`, in that order: 3.34 µg/mL, 3.66 µg/mL and 8.22 µg/mL.
As for `COc1ccc2c(c1)Cn1c-2cc2cc(C)ccc2c1=O`, the “topoisomerase 1 inhibition (active/not active)” value in assay [4] is “inactive”. Moreover, the Activity worked out at 8.78 µg/mL in assay [1], 5.95 µg/mL in assay [2] and 5.52 µg/mL in assay [3].
As for `COCOCc1cc(OC)c(OC)cc1-c1cc2ccccc2c(=O)[nH]1`, the results for the Activity in assay [1], in assay [2] and in assay [3] were 24.7 µg/mL, 16.04 µg/mL and 12.68 µg/mL, respectively.
For `COc1ccc2c(c1)Cn1c-2cc2ccccc2c1=O`, the “topoisomerase 1 inhibition (active/not active)” value in assay [4] is “Active”. Besides, the Activity in assay [1] was 7.29 µg/mL; in assay [2], 9.25 µg/mL; in assay [3], 12.01 µg/mL.
